Measured values taken from PubChem BioAssay (NCI).
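Test compounds were applied to cells in 96-well plates for 48 hours at 5 doses. Abbreviation: GI50, concentration required for 50% inhibition of growth. TGI is the concentration that stops growth completely.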

How the values were obtained:
Test in all cases: NCI-60 cell line screen, 48 h
NCI-H460 lung = test system: NCI-H460 lung
SF-268 CNS = test system: SF-268 CNS
MCF7 breast = test system: MCF7 breast
NCI-H226 lung = test system: NCI-H226 lung
HOP-62 NSCLC = test system: HOP-62 NSCLC
A498 renal = test system: A498 renal
SF-539 CNS = test system: SF-539 CNS
ACHN renal = test system: ACHN renal
HCT-116 colon = test system: HCT-116 colon
SK-MEL-5 melanoma = test system: SK-MEL-5 melanoma
RPMI-8226 leukemia = test system: RPMI-8226 leukemia
UACC-62 melanoma = test system: UACC-62 melanoma
SK-MEL-28 melanoma = test system: SK-MEL-28 melanoma
U251 CNS = test system: U251 CNS
MALME-3M melanoma = test system: MALME-3M melanoma
SF-295 CNS = test system: SF-295 CNS
RXF 393 renal = test system: RXF 393 renal
OVCAR-3 ovarian = test system: OVCAR-3 ovarian
OVCAR-5 ovarian = test system: OVCAR-5 ovarian
EKVX NSCLC = test system: EKVX NSCLC
MOLT-4 leukemia = test system: MOLT-4 leukemia
UACC-257 melanoma = test system: UACC-257 melanoma
MDA-MB-468 breast = test system: MDA-MB-468 breast
PC-3 prostate = test system: PC-3 prostate
SNB-19 CNS = test system: SNB-19 CNS
NCI/ADR-RES ovarian = test system: NCI/ADR-RES ovarian
T-47D breast = test system: T-47D breast
HCT-15 colon = test system: HCT-15 colon
SN12C renal = test system: SN12C renal
BT-549 breast = test system: BT-549 breast
CAKI-1 renal = test system: CAKI-1 renal
DU-145 prostate = test system: DU-145 prostate
SR leukemia = test system: SR leukemia
HT29 colon = test system: HT29 colon
UO-31 renal = test system: UO-31 renal
786-0 renal = test system: 786-0 renal
HCC-2998 colon = test system: HCC-2998 colon
K-562 leukemia = test system: K-562 leukemia
LOX IMVI melanoma = test system: LOX IMVI melanoma
HL-60(TB) leukemia = test system: HL-60(TB) leukemia
TK-10 renal = test system: TK-10 renal
OVCAR-4 ovarian = test system: OVCAR-4 ovarian
MDA-MB-231 breast = test system: MDA-MB-231 breast
CCRF-CEM leukemia = test system: CCRF-CEM leukemia
SNB-75 CNS = test system: SNB-75 CNS
A549 NSCLC = test system: A549 NSCLC
OVCAR-8 ovarian = test system: OVCAR-8 ovarian
NCI-H522 lung = test system: NCI-H522 lung
SK-MEL-2 melanoma = test system: SK-MEL-2 melanoma
MDA-MB-435 = test system: MDA-MB-435
SK-OV-3 ovarian = test system: SK-OV-3 ovarian
HOP-92 NSCLC = test system: HOP-92 NSCLC
HS 578T breast = test system: HS 578T breast
KM12 colon = test system: KM12 colon
NCI-H23 lung = test system: NCI-H23 lung
COLO 205 colon = test system: COLO 205 colon
IGROV1 ovarian = test system: IGROV1 ovarian
M14 melanoma = test system: M14 melanoma
SW-620 colon = test system: SW-620 colon

CCN1CCN(c2ccc(NC(=O)Nc3ccc(-c4cc(C(=O)NC(C)C)c5ncccc5n4)cc3)cc2C(F)(F)F)CC1
GI50 (NCI-H460 lung): 0.617 µM
TGI (NCI-H460 lung): 1.18 µM
GI50 (SF-268 CNS): 3.56 µM
TGI (SF-268 CNS): 10.9 µM
GI50 (MCF7 breast): 0.631 µM
TGI (MCF7 breast): 1.5 µM
GI50 (NCI-H226 lung): 5.02 µM
TGI (NCI-H226 lung): 12.5 µM
GI50 (HOP-62 NSCLC): 3.83 µM
TGI (HOP-62 NSCLC): 8.89 µM
GI50 (A498 renal): 5.11 µM
TGI (A498 renal): 9.7 µM
GI50 (SF-539 CNS): 0.534 µM
TGI (SF-539 CNS): 1.02 µM
GI50 (ACHN renal): 1.02 µM
TGI (ACHN renal): 3.47 µM
GI50 (HCT-116 colon): 0.638 µM
TGI (HCT-116 colon): 1.3 µM
GI50 (SK-MEL-5 melanoma): 1.41 µM
TGI (SK-MEL-5 melanoma): 5.28 µM
GI50 (RPMI-8226 leukemia): 1.04 µM
TGI (RPMI-8226 leukemia): 34.5 µM
GI50 (UACC-62 melanoma): 3.99 µM
TGI (UACC-62 melanoma): 8.28 µM
GI50 (SK-MEL-28 melanoma): 0.752 µM
TGI (SK-MEL-28 melanoma): 1.85 µM
GI50 (U251 CNS): 1.24 µM
TGI (U251 CNS): 4.82 µM
GI50 (MALME-3M melanoma): 0.575 µM
TGI (MALME-3M melanoma): 1.05 µM
GI50 (SF-295 CNS): 0.581 µM
TGI (SF-295 CNS): 1.14 µM
GI50 (RXF 393 renal): 0.654 µM
TGI (RXF 393 renal): 1.73 µM
GI50 (OVCAR-3 ovarian): 0.636 µM
TGI (OVCAR-3 ovarian): 1.36 µM
GI50 (OVCAR-5 ovarian): 1.6 µM
TGI (OVCAR-5 ovarian): 6.09 µM
GI50 (EKVX NSCLC): 1.61 µM
TGI (EKVX NSCLC): 5.82 µM
GI50 (MOLT-4 leukemia): 1.11 µM
TGI (MOLT-4 leukemia): 30.6 µM
GI50 (UACC-257 melanoma): 3.45 µM
TGI (UACC-257 melanoma): 8.11 µM
GI50 (MDA-MB-468 breast): 0.766 µM
TGI (MDA-MB-468 breast): 1.85 µM
GI50 (PC-3 prostate): 0.76 µM
TGI (PC-3 prostate): 2.1 µM
GI50 (SNB-19 CNS): 4.24 µM
TGI (SNB-19 CNS): 9.12 µM
GI50 (NCI/ADR-RES ovarian): 3.66 µM
TGI (NCI/ADR-RES ovarian): 10 µM
GI50 (T-47D breast): 1.93 µM
TGI (T-47D breast): 8.74 µM
GI50 (HCT-15 colon): 0.667 µM
TGI (HCT-15 colon): 1.35 µM
GI50 (SN12C renal): 0.668 µM
TGI (SN12C renal): 1.38 µM
GI50 (BT-549 breast): 4.83 µM
TGI (BT-549 breast): 9.57 µM
GI50 (CAKI-1 renal): 0.804 µM
TGI (CAKI-1 renal): 2.08 µM
GI50 (DU-145 prostate): 0.749 µM
TGI (DU-145 prostate): 1.58 µM
GI50 (SR leukemia): 1.05 µM
TGI (SR leukemia): 12.1 µM
GI50 (HT29 colon): 0.665 µM
TGI (HT29 colon): 1.32 µM
GI50 (UO-31 renal): 2.18 µM
TGI (UO-31 renal): 6.81 µM
GI50 (786-0 renal): 0.497 µM
TGI (786-0 renal): 1.03 µM
GI50 (HCC-2998 colon): 1.44 µM
TGI (HCC-2998 colon): 5.09 µM
GI50 (K-562 leukemia): 1 µM
TGI (K-562 leukemia): 34.5 µM
GI50 (LOX IMVI melanoma): 0.557 µM
TGI (LOX IMVI melanoma): 1.05 µM
GI50 (HL-60(TB) leukemia): 1.07 µM
TGI (HL-60(TB) leukemia): 5.89 µM
GI50 (TK-10 renal): 1.35 µM
TGI (TK-10 renal): 4.87 µM
GI50 (OVCAR-4 ovarian): 0.88 µM
TGI (OVCAR-4 ovarian): 2.45 µM
GI50 (MDA-MB-231 breast): 0.61 µM
TGI (MDA-MB-231 breast): 1.18 µM
GI50 (CCRF-CEM leukemia): 1.01 µM
TGI (CCRF-CEM leukemia): 3.1 µM
GI50 (SNB-75 CNS): 0.979 µM
TGI (SNB-75 CNS): 5.14 µM
GI50 (A549 NSCLC): 1.14 µM
TGI (A549 NSCLC): 5.77 µM
GI50 (OVCAR-8 ovarian): 5.69 µM
TGI (OVCAR-8 ovarian): 17.5 µM
GI50 (NCI-H522 lung): 3.52 µM
TGI (NCI-H522 lung): 8.43 µM
GI50 (SK-MEL-2 melanoma): 4.82 µM
TGI (SK-MEL-2 melanoma): 9.89 µM
GI50 (MDA-MB-435): 0.65 µM
TGI (MDA-MB-435): 1.31 µM
GI50 (SK-OV-3 ovarian): 5.33 µM
TGI (SK-OV-3 ovarian): 10.8 µM
GI50 (HOP-92 NSCLC): 3.14 µM
TGI (HOP-92 NSCLC): 8.29 µM
GI50 (HS 578T breast): 0.88 µM
TGI (HS 578T breast): 3.45 µM
GI50 (KM12 colon): 1.01 µM
TGI (KM12 colon): 2.91 µM
GI50 (NCI-H23 lung): 2.05 µM
TGI (NCI-H23 lung): 7.27 µM
GI50 (COLO 205 colon): 0.931 µM
TGI (COLO 205 colon): 2.71 µM
GI50 (IGROV1 ovarian): 1.42 µM
TGI (IGROV1 ovarian): 5.11 µM
GI50 (M14 melanoma): 0.723 µM
TGI (M14 melanoma): 1.9 µM
GI50 (SW-620 colon): 0.637 µM
TGI (SW-620 colon): 1.26 µM
